Test results taken from patent US20210196607A1 (HESED BIO CO., LTD., priority 2017, published 2021).

Assays:
tyrosinase [1] = test: Tyrosinase protein and mRNA amount in MSH-treated B16F10 cells; assay type: cell-based, mouse
Excerpt: Antibodies were purchased from respective manufacturers. Tyrosinase, 14-3-3ζ, LAMIN B (Santa Cruz), MITF (Abcam), phospho-MITF (Sigma), ERK, phospho-ERK (Cell Signaling), ACTIN (MPBIO), and GAPDH (Bethyl) were used.
(§1) Total RNA was extracted from each group of cells using a TRI reagent (Molecular Research Center). Extracted RNA was reverse transcribed using an ImProm™ Reverse Transcription System (Promega), followed by measurement using a StepOnePlus™ Real-Time PCR System (Applied Biosystems).

[2] = tested on: heat shock protein 70 (HSP70); test: Expression of heat shock protein 70 under heat stress; assay type: cell-based, mouse; settings: B16F10 cells
Method: Total protein was extracted from the cells using a THE buffer, and then the amount thereof was measured using a Bradford reagent. In addition, proteins were separated by SDS-PAGE and identified using antibodies, followed by quantitative analysis. Antibodies were purchased from respective manufacturers, and HSP70 (Santa Cruz) and actin (MPBIO) were used.
as §1

tyrosinase [3] = biological target: T1, tyrosinase (Mus musculus, UniProt P11344); test: Degree of tyrosinase activity at cellular level; assay type: cell-based; settings: B16F10 cells
T1 construct: The obtained cells were disrupted and then centrifuged to separate a supernatant; endogenous in cells; host or cells: B16F10 mouse melanoma cells, stimulated with melanocyte stimulating hormone
T1 sequence (P11344 19-533): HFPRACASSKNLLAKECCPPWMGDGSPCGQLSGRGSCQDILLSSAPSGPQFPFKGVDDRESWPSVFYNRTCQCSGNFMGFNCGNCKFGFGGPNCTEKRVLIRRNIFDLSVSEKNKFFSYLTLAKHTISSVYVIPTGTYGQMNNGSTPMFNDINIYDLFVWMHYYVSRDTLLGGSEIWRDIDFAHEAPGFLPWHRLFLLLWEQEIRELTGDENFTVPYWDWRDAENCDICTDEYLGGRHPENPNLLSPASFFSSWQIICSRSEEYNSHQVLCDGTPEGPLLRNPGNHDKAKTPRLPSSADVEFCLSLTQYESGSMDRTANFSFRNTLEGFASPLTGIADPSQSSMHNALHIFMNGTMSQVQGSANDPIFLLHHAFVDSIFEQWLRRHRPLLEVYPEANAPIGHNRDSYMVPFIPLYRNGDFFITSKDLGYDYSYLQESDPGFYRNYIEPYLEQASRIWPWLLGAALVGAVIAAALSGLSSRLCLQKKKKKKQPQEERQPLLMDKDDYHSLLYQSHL
Method: B16F10 mouse melanoma cells were seeded into a 6-well cell culture plate at a density of 1×10^5/well. […] The obtained cells were disrupted and then centrifuged to separate a supernatant. The protein concentration of the supernatant was measured, and 50 μg of protein per sample was standardized into a volume of 50 μl and placed on a 96-well plate. Then, 100 μl of 0.1% L-DOPA was added as a reaction substrate to each sample and allowed to react at 37° C. for 1 hour, and then absorbance at 475 nm was measured.

[4] = tested on: estrogen receptor signaling pathway; test: mRNA of estrogen receptor target genes; assay type: cell-based; settings: HEK 293A cells (FIG. 5D)
Excerpt: as §1

[5] = tested on: B16F10 mouse melanoma cells; test: Measuring amount of melanin; assay type: cell-based
Method: B16F10 mouse melanoma cells were seeded into a 6-well cell culture plate at a density of 1×10^5/well. […] The obtained cells were disrupted and then centrifuged to obtain a cell precipitate, and 1 N NaOH containing 10% DMSO was added thereto. Thereafter, the resulting precipitate was allowed to react at 60° C. for 1 hour, and absorbance at 405 nm was measured.

[6] = biological target: T2, ERα ligand-binding domain (Homo sapiens, UniProt P03372); test: Estrogen receptor reporter (GAL4 luciferase) experiment; assay type: cell-based
T2 construct: expressed in transfected cells; host or cells: HEK 293A cells
Method: To deliver a DNA plasmid into HEK 293A cells, a microporator (Invitrogen/Neon® Transfection System) was used. At one time, 1 μg of a reporter plasmid was delivered into 1 million cells. The DNA-delivered cells were cultured in a general culture medium. The activities of Renilla and Firefly luciferases were measured using a Dual-Luciferase® Reporter Assay System (Promega). To measure the activity of an estrogen receptor (ER) reporter, a system, in which, when a specific material binds to the ER ligand domain, GAL4 binds to a specific DNA sequence, resulting in expression of the Firefly luciferase, was used, and the Renilla luciferase was delivered together to calibrate DNA transfer efficiency. The activity of the estrogen receptor reporter was determined by dividing a value of the Firefly luciferase by a value of the Renilla luciferase. […] When HEK 293A cells to which reporter DNAs were delivered were treated with 50 μM of the extract, the expression of the luciferases was nearly 3.5 times higher than that of the control (see FIG. 5B).

cells = test: Cytotoxicity experiment (MTT experiment); assay type: cell-based
Method: 1-1: Cell Culture HEK 293A and B16F10 cells used, Dulbecco's Modified Eagle's Medium (DMEM) containing 10% fetal bovine serum and 1% penicillin/streptomycin as a nutrient source, and were incubated in an incubator maintained at 37° C. under 5% CO2.
This is an experiment for measuring the number of living cells through conversion of 3-(4,5-dimethyl-thiazol-2-yl)-2,5-diphenyl tetrazolium bromide (MTT) into formazan with a purple color, by reduction in cells. Cells were seeded into a 96-well cell culture plate at a density of 3×10^3. […] Thereafter, the culture medium was removed, and a solvent for dissolving crystallized formazan was added to dissolve the sample, and the absorbance at 570 nm of the dissolved sample was measured.

[7] = 100 nM melanocyte stimulating hormone for 48 hours
[8] = increasing amount of 8-methoxybutin (FIG. 2D)

T2 sequence (P03372 311-547 limits assumed): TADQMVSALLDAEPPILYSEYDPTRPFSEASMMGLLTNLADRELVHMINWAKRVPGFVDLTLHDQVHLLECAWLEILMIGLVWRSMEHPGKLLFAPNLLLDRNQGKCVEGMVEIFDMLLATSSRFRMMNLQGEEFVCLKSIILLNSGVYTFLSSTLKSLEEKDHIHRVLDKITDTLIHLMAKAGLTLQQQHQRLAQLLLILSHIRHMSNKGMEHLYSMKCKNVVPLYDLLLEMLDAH
T2 sequence (P04386 1-147 partner limits assumed): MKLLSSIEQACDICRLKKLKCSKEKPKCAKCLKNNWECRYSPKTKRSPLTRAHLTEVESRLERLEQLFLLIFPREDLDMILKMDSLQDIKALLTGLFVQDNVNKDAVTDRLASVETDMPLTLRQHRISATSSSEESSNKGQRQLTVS

COc1c(O)ccc2c1OC(c1ccc(O)c(O)c1)CC2=O (centres unmarked) [8-methoxybutin, 2-(3,4-dihydroxyphenyl)-7-hydroxy-8-methoxy-2,3-dihydro-4H-1-benzopyran-4-one]
amount of tyrosinase protein (tyrosinase [1]; B16F10 cells treated with melanocyte stimulating hormone (FIG. 2B)): remarkable decrease
tyrosinase mRNA level (tyrosinase [1]; B16F10 cells treated with melanocyte stimulating hormone (FIG. 2C)): confirmed at an mRNA level
amount of tyrosinase protein with increasing amount of compound (tyrosinase [1]; B16F10 cells, increasing amount of 8-methoxybutin (FIG. 2E)): reduced in proportion to the amount of 8-methoxybutin
amount of heat shock protein 70 mRNA compared to the control ([2]; heat stress (FIG. 3B)): larger amount
amount of heat shock protein 70 (HSP70) compared to a control ([2]; heat-applied condition 42° C. for 1 hour, DMSO control (FIG. 3A)): increased at least three times
decrease in tyrosinase activity (tyrosinase [3]; [7]): ≥ 110%
tyrosinase activity with increasing amount of compound (tyrosinase [3]; [8]): in proportion to the amount of 8-methoxybutin
amount of mRNA of target genes [4]: increased
decrease in melanin synthesis amount [5, 7]: ≥ 50%
melanin synthesis with increasing amount of compound [5, 8]: in proportion to the amount of 8-methoxybutin
expression of the luciferases relative to the control ([6]; HEK 293A cells with reporter DNAs, 50 μM (FIG. 5B)): ~3.5 times
expression of luciferases depending on concentration ([6]; HEK 293A cells, concentration increased from 10 μM (FIG. 5C)): statistically significant increase
cell survival rate (cells; 24 hours treatment, high as well as low concentration): about 100%
cytotoxicity (cells; high concentration, 100 μM): cytotoxicity was hardly observed
